Results published in publication PMC8056384 (ACS Chemical Biology, 2021).
Each block holds one compound with its values, some of them ahead of it.

Key:
[1] = target: T1, hGALK1 (Homo sapiens, UniProt P51570, E253A/K252A); test: Kinase-Glo luminescent hGALK1 activity assay; format: biochemical; design: Vmaxapp, substrate galactose, with ligand (+) / Kmapp, substrate galactose, with ligand (+): unit not given here
T1 construct: A hGALK1 construct, encoding full-length protein harboring the surface entropy[41] mutations K252A:E253A; His6 (N); made in house; host or cells: E. coli BL21(DE3)
Description: hGALK1 activity in vitro was determined using the Kinase-Glo luminescent kinase assay (Promega), according to the manufacturer’s protocol. […] Following a 1-h RT incubation, 10 μL of Kinase-Glo Plus detection reagent was added (final assay volume: 20 μL/well), and after a further 20 minutes RT incubation, luminescence was detected using a Pherastar FSX plate reader (BMG Labtech) containing a luminescence optics module. […] All reactions were performed in technical triplicates for two different preparations of hGALK1.
Data were plotted using GraphPad Prism software; curve fitting was performed with a nonlinear least-squares regression fit to the mixed, competitive, noncompetitive, and uncompetitive inhibition models from the GraphPad Prism enzyme kinetics–inhibition equations and the best fit selected by comparison of Akaike’s Information Criterion (AICc) probability scores and extra sum-of-squares F test P values calculated by the software.

[2] = target: T1, hGALK1; test: Amplex Red fluorescence-based hGALK1 activity assay (coupled with galactose oxidase); format: biochemical; design: Vmaxapp, substrate ATP, with ligand (+) / Kmapp, substrate ATP, with ligand (+): unit not given here
From the text: Consequently, to confirm the mode of inhibition of the spiro-benzoxazole inhibitors with respect to ATP, we adopted the Amplex Red fluorescence-based assay[33],[34] by coupling the hGALK1 reaction with D. dendroides galactose oxidase (GAO; EC 1.1.3.9) to measure the level of galactose remaining after being depleted as a substrate for hGALK1. In this method, hydrogen peroxide generated by the oxidation of galactose by GAO is used by horseradish peroxidase to convert the nonfluorescent substrate Amplex Red into its highly fluorescent product resorufin; therefore, the resultant fluorescent signal is inversely proportional to hGALK1 enzyme activity. We optimized several parameters of this assay to allow measurement of hGALK1 activity for the first time (Figure S3; Supplementary Results).
The Amplex Red assay reagent contained horseradish peroxidase (EC 1.11.1.7, 0.2 U/mL), its substrate Amplex Red (10-acetyl-3,7-dihydroxyphenoxazine, 100 μM), and galactose oxidase (EC 1.1.3.9, 4 U/mL). The assay buffer used was the same as in the Kinase-Glo assay. […] Amplex Red reagent was added at a 1:1 volume to the hGALK1 reaction after 1-h incubation at RT. Fluorescence emission was measured at 585 nm, with excitation at 570 nm, after a further incubation period of 40 minutes, using a Pherastar FSX plate reader with a FI 540 590 optics module. Reactions were performed in technical triplicates for two biological replicates, and data were plotted and fitted as described for the Kinase-Glo assay except that the reaction rate, defined as total galactose consumed over the 1-h hGALK1 reaction, was determined using the following equation, where Fluorreaction = mean value of measured fluorescence of each reaction and Fluor50 = measured fluorescence with no galactose (i.e., fluorescence of 50 μM galactose): [drawing 2]

[3] = 50 µM galactose, maximum tested concentration: 1 mM T1, 15 mM fragment 3, 2 mM 11–13
[4] = 35 µM ATP, maximum tested concentration: 1 mM T1, 15 mM fragment 3, 2 mM 11–13

T1 sequence (P51570 whole entry K252A/E253A): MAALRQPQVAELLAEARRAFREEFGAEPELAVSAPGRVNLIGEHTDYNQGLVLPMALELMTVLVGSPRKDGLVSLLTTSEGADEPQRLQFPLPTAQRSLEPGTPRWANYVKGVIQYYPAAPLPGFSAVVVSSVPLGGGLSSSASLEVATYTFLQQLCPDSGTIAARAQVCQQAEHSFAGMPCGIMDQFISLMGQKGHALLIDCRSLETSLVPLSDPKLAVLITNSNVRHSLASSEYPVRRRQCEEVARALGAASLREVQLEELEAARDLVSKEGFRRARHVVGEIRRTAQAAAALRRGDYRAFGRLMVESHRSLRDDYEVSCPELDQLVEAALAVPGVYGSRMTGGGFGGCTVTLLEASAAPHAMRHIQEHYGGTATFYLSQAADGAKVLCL

change in hGALK1 activity, strictly standardized mean difference (SSMD) ([1]; 5 mM fragment): < 0.5
Structure (SMILES): CS(=O)(=O)c1nccn1Cc1cscn1 [fragment 2]

Kmapp, substrate ATP, with ligand (+) [2, 3]: 32.1 ± 8.4
Vmaxapp, substrate ATP, with ligand (+) [2, 3]: 4.2 ± 0.3
decrease in Vmaxapp, ATP titration ([2]; fragment 0–15 mM, 50 μM galactose): 4 fold
mode of inhibition with respect to galactose ([1]; 35 μM ATP, 0–250 μM galactose, best-fit model in GraphPad Prism): mixed
Kmapp, substrate galactose, with ligand (+) [1, 4]: 184.2 ± 2.1
Vmaxapp, substrate galactose, with ligand (+) [1, 4]: 5.1 ± 0.4
change in hGALK1 activity, strictly standardized mean difference (SSMD) ([1]; 5 mM fragment): 2.79
reduction of hGALK1 activity ([1]; 5 mM fragment, single-point): 24 ± 1.6%
decrease in Vmaxapp, galactose titration ([1]; fragment 0–15 mM, 35 μM ATP): 5 fold
increase in Kmapp, galactose titration ([1]; fragment 0–15 mM, 35 μM ATP): 6 fold
Structure (SMILES): O=C(Cc1ccc(Cl)cc1)Nc1ncccn1 [fragment 3]

change in hGALK1 activity, strictly standardized mean difference (SSMD) ([1]; 5 mM fragment): < 0.5
Structure (SMILES): O=C(OCc1ccc(Cl)cc1)c1cccnc1 [fragment 4]

change in hGALK1 activity, strictly standardized mean difference (SSMD) ([1]; 5 mM fragment): < 0.5
Structure (SMILES): O=C(NCCN1CCCC1=O)Nc1ccccc1 [fragment 5]

change in hGALK1 activity, strictly standardized mean difference (SSMD) ([1]; 5 mM fragment): < 0.5
Structure (SMILES): Cc1ccc(C)c(OC(=O)c2ccncc2)c1 [fragment 7]

change in hGALK1 activity, strictly standardized mean difference (SSMD) ([1]; 5 mM fragment): 0.80
Structure (SMILES): COc1ccc(Cl)cc1C(=O)NCC(C)C [fragment 10]
